Patent US20060241145A1, “Piperidine derivative crystal, process for producing the same, and use” (priority 2005, published 2006)
Structures can show the parent of a compound that is named as a salt. Blank lines part the entries; values can stand above or below the compound they belong to.

Key:
substance P receptor = biological target: T1, substance P receptor (Homo sapiens, UniProt P25103); assay: Radioligand receptor binding inhibitory activity (binding inhibitory activity using receptor from human lymphoblast cells (IM-9)); details: 125I-BHSP (substance P labeled with [125I]), receptor from IM-9 cells, 25° C. 30 min
T1 construct: The receptors were prepared from human lymphoblast cells (IM-9); endogenous in cells; host or cells: IM-9 human lymphoblast cells (membrane preparation)
Procedure: Radioligand receptor binding inhibitory activity (Binding inhibitory activity using receptor from human lymphoblast cells (IM-9))
The method of M. A. Cascieri et al., “Molecular Pharmacology 42, p. 458 (1992)” was modified and used. The receptors were prepared from human lymphoblast cells (IM-9). IM-9 cells (2×10^5 cells/mL) were incubated for 3 days (one liter), which were then subjected to centrifuge for 5 min. at 500×G to obtain cell pellets. The obtained pellets were washed once with phosphate buffer (Flow Laboratories, CAT. No. 28-103-05), which were then homogenized using Polytron homogenizer (“Kinematika”, Germany) in 30 mL of 50 mM Tris-HCl buffer (pH 7.4) containing 120 mM sodium chloride, 5 mM potassium chloride, 2 μg/mL chymostatin, 40 μg/mL bacitracin, 5 μg/mL phosphoramidon, 0.5 mM phenylmethylsulfonyl fluoride, 1 mM ethylenediamine tetra-acetate, which was subjected to centrifuge at 40,000×G for 20 min. The residue was washed twice with 30 mL of the buffer, which was then preserved frozen (−80° C.) as a specimen of the receptors.
The specimen was suspended in a reaction buffer (50 mM Tris-HCl buffer (pH 7.4), 0.02% bovine serum albumin, 1 mM phenylmethylsulfonyl fluoride, 2 μg/mL chymostatin, 40 μg/mL bacitracin and 3 mM manganese chloride) to have protein in the concentration of 0.5 mg/mL of protein and 100 μL portion of the suspension was used in the reaction. After addition of the sample and ^125I-BHSP (0.46 KBq), the reaction was allowed to proceed in 0.2 mL of reaction buffer at 25° C. for 30 min. The amount of nonspecific binding was determined by adding substance P at a final concentration of 2×10^−6 M.
After the reaction, using a cell harvester (290 PHD, Cambridge Technology, Inc, U.S.A.), the reaction solution was filterd through a glass filter (GF/B, Whatman, U.S.A.), which was immersed in 0.1% polyethyleneimine for 24 hrs. and dried. After washing three times with 250 μL of 50 mM Tris-HCl buffer (pH 7.4) containing 0.02% bovine serum albumin, the radioactivity remaining on the filter was determined with a gamma counter.
The antagonistic activity of each compound obtained in Examples was determined in terms of the concentration necessary to cause 50% inhibition (IC50 value) under the above-described conditions, and the results were shown in Table 9.
The radio ligand means substance P labeled with [^125I].

[1] = system: urethane anesthetized male guinea pigs; assay: Bladder capacity increasing action in urethane anesthetized guinea pigs; type: in vivo, guinea pig; details: for changes in bladder capacity (vs. before administration, %) / changes in voiding pressure (vs. before administration, %): mean ± standard error; for effect on bladder capacity (in words) / effect on voiding pressure (in words): intravenous, summary of Table 10
Text: Bladder Capacity Increasing Activity of Tachykinin Receptor Antagonist, Oxybutynin and Tolterodine (Bladder Capacity Increasing Action in Urethane Anesthetized Guinea Pigs)
A urinary frequency/urinary incontinence suppressing effect of a substance having antagonistic action for tachykinin receptors was shown in terms of the ability to increase bladder capacity in urethane anesthetized male guinea pigs and compared with that of oxybutynin and tolterodine, which are therapeutic drugs for overactive bladder. Using male guinea pig under anesthesia, after emptying the bladder by suction, saline was infused into the bladder at a constant rate (0.3 mL/min.) until voiding. This procedure was repeated to confirm stable bladder capacity (amount of saline injected before induction of voiding). After confirming a stable response, a compound dissolved in DMSO was intravenously administered and the action was measured. Changes in the bladder capacity and voiding pressure after drug administration were measured.

T1 sequence (P25103 whole entry): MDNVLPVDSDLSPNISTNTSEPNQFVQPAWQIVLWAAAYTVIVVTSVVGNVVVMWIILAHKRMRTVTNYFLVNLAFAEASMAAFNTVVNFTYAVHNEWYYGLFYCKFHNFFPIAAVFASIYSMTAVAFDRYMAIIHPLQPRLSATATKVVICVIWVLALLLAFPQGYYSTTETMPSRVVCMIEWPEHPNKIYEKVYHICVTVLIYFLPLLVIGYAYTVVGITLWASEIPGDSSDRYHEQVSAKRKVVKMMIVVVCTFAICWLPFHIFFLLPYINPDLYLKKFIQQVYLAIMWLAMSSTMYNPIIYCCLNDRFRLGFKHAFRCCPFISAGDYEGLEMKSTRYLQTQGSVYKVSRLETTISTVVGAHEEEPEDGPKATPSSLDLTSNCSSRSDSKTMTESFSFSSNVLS

- IC50 (substance P receptor): 0.062 nM
Compound: COc1ccc(-n2nnnc2C(F)(F)F)cc1CN[C@H]1CCN(C(=O)C(O)NC(C)=O)C[C@H]1c1ccccc1 (single isomer, unassigned) [Example 13]

- IC50 (substance P receptor): 0.021 nM
Compound: COc1ccc(-n2nnnc2C(F)(F)F)cc1CN[C@H]1CCN(C(=O)C2CCN(S(C)(=O)=O)CC2)C[C@H]1c1ccccc1 [Example 11, (3R,4S)-N-{2-methoxy-5-[5-(trifluoromethyl)-1H-tetrazol-1-yl]benzyl}-1-{[1-(methylsulfonyl)piperidin-4-yl]carbonyl}-3-phenylpiperidine-4-amine monohydrochloride]

- IC50 (substance P receptor): 0.016 nM
Compound: COc1ccc(-n2nnnc2C(F)(F)F)cc1CN[C@H]1CCN(C(=O)C(O)NC(C)=O)C[C@H]1c1ccccc1 (single isomer, unassigned) [Example 12]

- IC50 (substance P receptor): 0.022 nM
Compound: COc1ccc(-n2nnnc2C(F)(F)F)cc1CN[C@H]1CCN(C(=O)CS(C)(=O)=O)C[C@H]1c1ccccc1 [Example 8, (3R,4S)-N-{2-methoxy-5-[5-(trifluoromethyl)-1H-tetrazol-1-yl]benzyl}-1-[(methylsulfonyl)acetyl]-3-phenylpiperidine-4-amine monohydrochloride]

- IC50 (substance P receptor): 0.026 nM
Compound: COc1ccc(-n2nnnc2C(F)(F)F)cc1CN[C@H]1CCN(C(C)=O)C[C@H]1c1ccccc1 [Example 6, (3R,4S)-1-acetyl-N-{2-methoxy-5-[5-(trifluoromethyl)-1H-tetrazol-1-yl]benzyl}-3-phenylpiperidine-4-amine monohydrochloride]

- IC50 (substance P receptor): 0.012 nM
Compound: CCC(=O)NCC(=O)N1CC[C@H](NCc2cc(-n3nnnc3C(F)(F)F)ccc2OC)[C@H](c2ccccc2)C1 [Example 9, N-{2-[(3R,4S)-4-({2-methoxy-5-[5-(trifluoromethyl)-1H-tetrazol-1-yl]benzyl}amino)-3-phenylpiperidin-1-yl]-2-oxoethyl}propanamide monohydrochloride]

- IC50 (substance P receptor): 0.016 nM
Compound: COc1ccc(-n2nnnc2C(F)(F)F)cc1CN[C@H]1CCN(C(=O)C2CCNCC2)C[C@H]1c1ccccc1 [Example 10, (3R,4S)-N-(2-methoxy-5-[5-(trifluoromethyl)-1H-tetrazol-1-yl]benzyl)-3-phenyl-1-(piperidin-4-ylcarbonyl)piperidine-4-amine dihydrochloride]

Compound: Cc1ccc(O)c([C@H](CCN(C(C)C)C(C)C)c2ccccc2)c1 [tolterodine]
- changes in bladder capacity (vs. before administration, %) ([1]; dose 1 mg/kg intravenously): −3.4 ± 4.4%
- changes in voiding pressure (vs. before administration, %) ([1]; dose 1 mg/kg intravenously): 0.1 ± 5.7%
- changes in bladder capacity (vs. before administration, %) ([1]; dose 3 mg/kg intravenously): 14.8 ± 7.6%
- changes in voiding pressure (vs. before administration, %) ([1]; dose 3 mg/kg intravenously): −6.7 ± 6.5 %
- changes in bladder capacity (vs. before administration, %) ([1]; dose 10 mg/kg intravenously): 31.7 ± 9.1 %
- changes in voiding pressure (vs. before administration, %) ([1]; dose 10 mg/kg intravenously): −15.5 ± 4.6 %
- effect on bladder capacity (in words) [1]: significantly increased the bladder capacity
- effect on voiding pressure (in words) [1]: voiding pressure lowering action of tolterodine was significant

Compound: COc1ccc(-n2nnnc2C(F)(F)F)cc1CN[C@H]1CCN(C(=O)CNC(C)=O)C[C@H]1c1ccccc1 [Example 20, N-{2-[(3R,4S)-4-({2-methoxy-5-[5-(trifluoromethyl)-1H-tetrazol-1-yl]benzyl}amino)-3-phenylpiperidin-1-yl]-2-oxoethyl}acetamide]
- IC50 (substance P receptor): 0.017 nM
- changes in bladder capacity (vs. before administration, %) ([1]; dose 0.01 mg/kg intravenously): 5.8 ± 11.1%
- changes in voiding pressure (vs. before administration, %) ([1]; dose 0.01 mg/kg intravenously): 10.1 ± 8.4%
- changes in bladder capacity (vs. before administration, %) ([1]; dose 0.03 mg/kg intravenously): 3.0 ± 8.2%
- changes in voiding pressure (vs. before administration, %) ([1]; dose 0.03 mg/kg intravenously): 18.5 ± 18.5%
- changes in bladder capacity (vs. before administration, %) ([1]; dose 0.1 mg/kg intravenously): 42.9 ± 6.0 %
- changes in voiding pressure (vs. before administration, %) ([1]; dose 0.1 mg/kg intravenously): 3.0 ± 8.0%
- changes in bladder capacity (vs. before administration, %) ([1]; dose 0.3 mg/kg intravenously): 71.2 ± 25.2 %
- changes in voiding pressure (vs. before administration, %) ([1]; dose 0.3 mg/kg intravenously): 4.9 ± 11.0%
- effect on bladder capacity (in words) [1]: increased the bladder capacity in a dose-dependent manner
- effect on voiding pressure (in words) [1]: without affecting the voiding pressure

Compound: CCN(CC)CC#CCOC(=O)C(O)(c1ccccc1)C1CCCCC1 (centres unmarked) [oxybutynin]
- changes in bladder capacity (vs. before administration, %) ([1]; dose 0.1 mg/kg intravenously): 1.8 ± 7.0%
- changes in voiding pressure (vs. before administration, %) ([1]; dose 0.1 mg/kg intravenously): 4.3 ± 7.5%
- changes in bladder capacity (vs. before administration, %) ([1]; dose 0.3 mg/kg intravenously): 19.3 ± 5.1 %
- changes in voiding pressure (vs. before administration, %) ([1]; dose 0.3 mg/kg intravenously): −11.6 ± 5.4%
- changes in bladder capacity (vs. before administration, %) ([1]; dose 1 mg/kg intravenously): 43.6 ± 7.7 %
- changes in voiding pressure (vs. before administration, %) ([1]; dose 1 mg/kg intravenously): −12.1 ± 8.8%
- changes in bladder capacity (vs. before administration, %) ([1]; dose 3 mg/kg intravenously): 36.8 ± 6.6 %
- changes in voiding pressure (vs. before administration, %) ([1]; dose 3 mg/kg intravenously): −6.0 ± 5.6%
- effect on bladder capacity (in words) [1]: significantly increased the bladder capacity
- effect on voiding pressure (in words) [1]: showed lower voiding pressure

- IC50 (substance P receptor): 0.015 nM
Compound: COc1ccc(-n2nnnc2C(F)(F)F)cc1CN[C@H]1CCN(C(=O)CN2C(=O)CCC2=O)C[C@H]1c1ccccc1 [Example 7, 1-{2-[(3R,4S)-4-({2-methoxy-5-[5-(trifluoromethyl)-1H-tetrazol-1-yl]benzyl}amino)-3-phenylpiperidin-1-yl]-2-oxoethyl}pyrrolidine-2,5-dione monohydrochloride]

- IC50 (substance P receptor): 0.017 nM
Compound: COc1ccc(-n2nnnc2C(F)(F)F)cc1CN[C@H]1CCN(C(=O)CNC=O)C[C@H]1c1ccccc1 [Example 5, {2-[(3R,4S)-4-({2-methoxy-5-[5-(trifluoromethyl)-1H-tetrazol-1-yl]benzyl}amino)-3-phenylpiperidin-1-yl]-2-oxoethyl}formamide]
